“Also recorded” adds a separate entry of the source. Read-outs that look alike come from different tables or passages of the source. Marks after values point to notes of the source that are not given here.
Assays:
human AR = molecular target: T1, human AR (Homo sapiens, UniProt P10275); experiment: AR-CALUX assay, antiandrogenic (AR antagonistic) activity, U2OS-luc cells; format: cell-based; parameters: host or cells: human U2OS-luc (osteoblastic osteosarcoma) cells; conditions: for REPmol (IC25): molar relative potency to flutamide, IC25-based
T1 sequence (P10275 1-920): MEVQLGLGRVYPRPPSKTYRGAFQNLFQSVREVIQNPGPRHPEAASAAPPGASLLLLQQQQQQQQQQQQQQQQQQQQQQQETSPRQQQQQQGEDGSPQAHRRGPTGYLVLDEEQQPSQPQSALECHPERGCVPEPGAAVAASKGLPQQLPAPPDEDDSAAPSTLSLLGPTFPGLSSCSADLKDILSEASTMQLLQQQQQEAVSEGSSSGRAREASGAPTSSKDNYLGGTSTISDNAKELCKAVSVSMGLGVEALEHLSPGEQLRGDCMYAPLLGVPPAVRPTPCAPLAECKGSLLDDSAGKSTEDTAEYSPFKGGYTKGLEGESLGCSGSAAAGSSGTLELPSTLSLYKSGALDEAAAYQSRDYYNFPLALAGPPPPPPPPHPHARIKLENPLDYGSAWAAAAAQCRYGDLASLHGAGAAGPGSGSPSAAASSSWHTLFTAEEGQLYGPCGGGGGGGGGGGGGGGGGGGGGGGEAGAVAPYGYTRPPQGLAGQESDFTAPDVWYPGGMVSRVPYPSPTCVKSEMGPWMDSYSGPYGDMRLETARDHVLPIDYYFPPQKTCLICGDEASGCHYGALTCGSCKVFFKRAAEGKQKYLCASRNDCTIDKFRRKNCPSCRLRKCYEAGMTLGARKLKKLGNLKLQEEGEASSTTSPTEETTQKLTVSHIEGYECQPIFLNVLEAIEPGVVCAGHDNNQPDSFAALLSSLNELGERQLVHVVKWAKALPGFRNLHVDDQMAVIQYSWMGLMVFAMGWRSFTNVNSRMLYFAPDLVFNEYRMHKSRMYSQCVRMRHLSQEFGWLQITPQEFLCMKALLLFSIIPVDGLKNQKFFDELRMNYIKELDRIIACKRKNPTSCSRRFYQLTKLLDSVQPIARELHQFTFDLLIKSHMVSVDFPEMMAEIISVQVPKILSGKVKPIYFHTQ
Method: The AR- and ER-CALUX assays for the polycyclic aromatic compounds were evaluated according to previously described methods, which used human U2OS-luc cells developed by BioDetection Systems b.v. (Amsterdam, The Netherlands). The cells are transfected stably with human AR and ER, respectively, and a luciferase reporter gene under their respective steroid receptor response elements. […] They were incubated at 37 °C in a humidified atmosphere containing 5% carbon dioxide. […] The medium was then removed, and the cells were lysed. A solution of luciferin was then added, and the luminescence intensity was measured with an ARVO™ X3 luminometer from PerkinElmer (Waltham, MA, USA). A sigmoid dose–response curve for a chemical was fitted to the Hill equation given by Equation (1) using SigmaPlot 11.0 from Systat Software Inc. (San Jose, CA, USA). y = min + (max − min)/(1 + (a1/x)^a^2)(1) where, y and x are the measured luciferase induction level and compound concentration, respectively. […] The REP values in mol base were obtained by dividing the ICs or ECs of the standard by the ICs or ECs of target compound, respectively.
All measurements were conducted in triplicate wells. They were repeated twice and trice in the AR- and ER-CALUX assays, respectively, for each concentration in dose–response curve. […] Cell viability was confirmed using 3-(4,5-dimethylthiazol-2-yl)-2,5-diphenyltetrazolium bromide (MTT) assay. If the cell viability was <80% in the positive control, the corresponding exposure dose was considered cytotoxic and excluded from the calculation.

human ER = molecular target: T2, human ER (Homo sapiens, UniProt P03372); experiment: ER-CALUX assay, estrogenic activity, U2OS-luc cells; format: cell-based; parameters: host or cells: human U2OS-luc (osteoblastic osteosarcoma) cells; conditions: for EC50 / REPmol (EC50): present study; for EC50: 24 h exposure; for REPmol (EC50): molar relative potency to E2, EC50-based
T2 sequence (P03372 1-595): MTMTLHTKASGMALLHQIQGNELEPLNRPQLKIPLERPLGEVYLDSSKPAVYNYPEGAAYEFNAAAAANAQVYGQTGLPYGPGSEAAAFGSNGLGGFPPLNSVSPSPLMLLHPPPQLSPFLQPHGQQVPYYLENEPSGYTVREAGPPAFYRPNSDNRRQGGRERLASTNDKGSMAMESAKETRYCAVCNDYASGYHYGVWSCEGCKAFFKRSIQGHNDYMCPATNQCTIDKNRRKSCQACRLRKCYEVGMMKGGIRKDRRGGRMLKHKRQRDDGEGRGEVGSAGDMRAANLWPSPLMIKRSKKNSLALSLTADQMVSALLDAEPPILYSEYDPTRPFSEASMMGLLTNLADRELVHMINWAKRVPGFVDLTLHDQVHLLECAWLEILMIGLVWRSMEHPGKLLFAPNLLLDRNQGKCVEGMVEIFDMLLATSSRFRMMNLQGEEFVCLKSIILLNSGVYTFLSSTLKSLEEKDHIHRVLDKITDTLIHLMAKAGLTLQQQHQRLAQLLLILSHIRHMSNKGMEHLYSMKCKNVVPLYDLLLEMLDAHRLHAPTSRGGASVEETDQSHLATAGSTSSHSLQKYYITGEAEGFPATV

AR [1] = conditions: previous study, cited from earlier work
ER = tested on: ER; parameters: method as in Boonen et al. [33]; conditions: previous study; relative to E2; ref Boonen et al. [33]; cited from earlier work
AR [2] = tested on: AR; parameters: method as in Okamura et al. [22]; key: +, positive; conditions: cited from earlier work
[3] = present study, 24 h exposure with 100 pM DHT (EC50 level)
[4] = previous study, ref Okamura et al. [22]
[5] = relative to flutamide, ref Alvarez-Muñoz et al. [28]

| Molecule | IC25 (human AR; [3]) | REPmol (IC25) (human AR; present study) | REPmol (EC50) (human ER) | IC50 (human AR; read-out: IC50) | further results |
| --- | --- | --- | --- | --- | --- |
| O=[N+]([O-])c1cc([N+](=O)[O-])c2ccc3cccc4ccc1c2c43 [1,3-DNPy, 1,3-dinitropyrene] | 130 nM | 0.88 | U (< 10% response of 1 nM E2) | – | IC50 (human AR): 210 nM; inhibition of AR-mediated luciferase activity (human AR; coexposure to DHT at 10 nM (100 × EC50), compound at 3 μM): 33%; mode of AR inhibition (human AR; from coexposure to 10 nM DHT): noncompetitive; EC50 (human ER): U (< 10% response of 1 nM E2) |
| O=[N+]([O-])c1ccc2ccc3ccc([N+](=O)[O-])c4ccc1c2c34 [1,8-DNPy, 1,8-dinitropyrene] | – | 0.91 | U (< 10% response of 1 nM E2) | – | – |
| O=[N+]([O-])c1cc2c3ccccc3ccc2c2ccccc12 [6-NChr, 6-nitrochrysene] | 39 nM | 3.2 | – | 88 nM | – |
| O=[N+]([O-])c1ccc2c(c1)-c1cccc3cccc-2c13 [8-NFA, 8-Nitrofluoranthene] | 98 nM | 1.3 | – | 270 nM | – |
| c1ccc2cc3ccccc3cc2c1 [Ant, abthracene] | – | – | – | – | REPmol, U2OS (AR [1]; relative to flutamide, ref Marin-Kuan et al. [29]): 0.2 ^d; REPmol, VM7 (ER): 8.3 × 10^−7 |
| O=C1c2ccccc2-c2cccc3cccc1c23 [BAO, 7H-benz[de]anthracen-7-one] | – | – | – | – | REPmol, U2OS (AR [1]; relative to flutamide, ref Weiss et al. [34]): 0.014 ^c; EC50 (human ER; read-out: EC50): 16000 nM |
| O=C1c2cccc3ccc4ccc5cccc1c5c4c23 [BPO, 6H-benzo[cd]pyren-6-one] | – | – | U (key: U: < 10% response of 1 nM E2; nd: not detected) | – | antiandrogenic activity (in words) (human AR; present study): not observed; EC50 (human ER): U (key: U: < 10% response of 1 nM E2; nd: not detected) |
| c1cc2ccc3ccc4ccc5cccc6c(c1)c2c3c4c56 [BPe, Benzo[ghi]perylene] | – | – | – | – | antiandrogenic activity, PC3 (AR [2]): + |
| O=C1c2ccccc2-c2ccc3ccccc3c21 [B[a]FO, 11H-Benzo[a]fluoren-11-one] | 300 nM | 0.43 | – | 670 nM | EC50 (human ER; read-out: EC50): 4800 nM |
| c1ccc2c(c1)-c1cccc3c1c-2cc1ccccc13 [B[b]FA, benzo[b]fluoranthene] | – | – | – | – | antiandrogenic activity, PC3 (AR [2]; [4]): + |
| O=C1c2ccccc2-c2cc3ccccc3cc21 [B[b]FO, 11H-benzo[b]fluoren-11-one] | 150 nM | 0.81 | – | 530 nM | EC50 (human ER; read-out: EC50): 4800 nM |
| c1ccc2c(c1)ccc1ccc3ccccc3c12 [B[c]Phe, Benzo[c]phenanthrene] | 110 nM | 1.0 | – | 370 nM | activation (level of the response to 1 nM E2) (human ER; at 8 μM): 27% activation at 8 μM |
| c1ccc2c(c1)c1cccc3ccc4cccc2c4c31 [B[e]P, benzo[e]pyrene] | – | – | U (key: U: < 10% response of 1 nM E2; nd: not detected) | – | antiandrogenic activity, PC3 (AR [2]; [4]): +; inhibition at 10 µM (human AR; at 10 μM, maximum soluble concentration, read-out: inhibition of AR activation): > 15%; antiandrogenic activity (in words) (human AR; present study): partial antagonist; EC50 (human ER): U (key: U: < 10% response of 1 nM E2; nd: not detected) |
| c1ccc2c3c(ccc2c1)-c1cccc2cccc-3c12 [B[j]FA, benzo[j]fluoranthene] | 130 nM | 0.84 | – | 290 nM | antiandrogenic activity, PC3 (AR [2]; [4]): +; activation (level of the response to 1 nM E2) (human ER; at 3 μM): 13% activation at 3 μM |
| c1ccc2cc3c(cc2c1)-c1cccc2cccc-3c12 [B[k]FA, benzo[k]fluoranthene] | – | – | – | – | REPmol, U2OS (AR [1]; [5]): 2.6 ^f; antiandrogenic activity, PC3 (AR [2]; [4]): + |
| c1ccc2c(c1)cc1ccc3cc4ccccc4c4ccc2c1c34 [DB[a,i]P, dibenzo[a,i]pyrene] | – | – | – | – | antiandrogenic activity (in words) (human AR; present study): not observed; also recorded: inactive; activation (level of the response to 1 nM E2) (human ER; at 3 μM): 14% activation at 3 μM |
| c1ccc2c(c1)cc1ccc3cccc4c5ccccc5c2c1c34 [DB[a,l]P, dibenzo[a,l]pyrene] | 3600 nM | 0.037 | U (key: U: < 10% response of 1 nM E2; nd: not detected) | 8900 nM | EC50 (human ER): U (key: U: < 10% response of 1 nM E2; nd: not detected) |
| CC(C)C(=O)Nc1ccc([N+](=O)[O-])c(C(F)(F)F)c1 [Flutamide, reference compound] | – | – | – | – | REPmol, U2OS (AR [1]; the standard itself, no reference given): 1 |
| c1ccc2c(c1)-c1ccc3ccc4cccc5cc-2c1c3c45 [IdP, indeno[1,2,3-cd]pyrene] | – | – | – | – | REPmol, U2OS (AR [1]; [5]): 0.35 ^f; antiandrogenic activity, PC3 (AR [2]; [4]): + |
| O=C1c2ccccc2C(=O)c2cc3ccccc3cc21 [NCQ, 5,12-naphthacenequinone] | – | – | U (< 10% response of 1 nM E2) | – | antiandrogenic activity (in words) (human AR; present study): not observed; EC50 (human ER): U (< 10% response of 1 nM E2) |
| O=C1C=Cc2ccccc2C1=O [NphQ, 1,2-naphthoquinone] | – | – | – | – | antiandrogenic activity (in words) (human AR; present study): not observed |
| O=C1C=Cc2cccc3cccc1c23 [PhO, Phenalenone] | 840 nM | 0.12 | U (< 10% response of 1 nM E2) | 2000 nM | EC50 (human ER): U ^j (< 10% response of 1 nM E2) |
| cyclopenta[cd]pyrene [CPP] | 580 nM | 0.14 | – | – | IC50 (human AR; present study, 24 h exposure with 100 pM DHT (EC50 level), read-out: IC50): 1300 nM |

— paper PMC9819389, “Antiandrogenic and Estrogenic Activity Evaluation of Oxygenated and Nitrated Polycyclic Aromatic Hydrocarbons Using Chemically Activated Luciferase Expression Assays” (International Journal of Environmental Research and Public …, 2022)
